Measurements: ChEMBL document CHEMBL1201862, “PubChem BioAssay data set” (2004)
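How tested: cells in 96-well plates exposed to compound for 48 hours at five concentrations. Abbreviation: GI50, concentration required for 50% inhibition of growth.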 Calls of active or inactive are those of the source. No stated cut-off is given here; in the data, active = GI50 up to about 1.1 µM and inactive = higher.

Legend:
Experiment in all cases: NCI anticancer screen, dose series, 48 h
[1] = tested on: SK-MEL-28
[2] = tested on: SR
[3] = tested on: NCI/ADR-RES
[4] = tested on: SF-295
[5] = tested on: CAKI-1
[6] = tested on: MOLT-4
[7] = tested on: HL-60
[8] = tested on: ACHN
[9] = tested on: M14
[10] = tested on: HCT-15
[11] = tested on: UACC-62
[12] = tested on: SK-OV-3
[13] = tested on: IGROV-1
[14] = tested on: HCT-116
[15] = tested on: CCRF-CEM
[16] = tested on: HCC 2998
[17] = tested on: UO-31
[18] = tested on: RPMI-8226
[19] = tested on: Hs-578T
[20] = tested on: U-251
[21] = tested on: HOP-62
[22] = tested on: OVCAR-3
[23] = tested on: KM12
[24] = tested on: MCF7
[25] = tested on: OVCAR-8
[26] = tested on: MDA-N
[27] = tested on: LOX IMVI
[28] = tested on: PC-3
[29] = tested on: OVCAR-5
[30] = tested on: SK-MEL-5
[31] = tested on: COLO 205
[32] = tested on: NCI-H460
[33] = tested on: A498
[34] = tested on: K562
[35] = tested on: T47D
[36] = tested on: UACC-257
[37] = tested on: MDA-MB-435
[38] = tested on: TK-10
[39] = tested on: A549
[40] = tested on: SNB-19
[41] = tested on: SF-268
[42] = tested on: BT-549
[43] = tested on: MDA-MB-231
[44] = tested on: SW-620
[45] = tested on: DU-145
[46] = tested on: EKVX
[47] = tested on: 786-0
[48] = tested on: OVCAR-4
[49] = tested on: HOP-92
[50] = tested on: SN12C
[51] = tested on: SK-MEL-2
[52] = tested on: SF-539
[53] = tested on: HT-29
[54] = tested on: Malme-3M
[55] = tested on: NCI-H226
[56] = tested on: RXF 393
[57] = tested on: SNB-75
[58] = tested on: NCI-H522
[59] = tested on: NCI-H23

CN(C)c1ccc(/C=C2\N=C(c3ccccc3)N(c3nc4c(Cl)cc(Cl)cc4s3)C2=O)cc1
GI50 [1]: 54.6 µM (inactive)
GI50 [2]: 32.1 µM (inactive)
GI50 [3]: 43.7 µM (inactive)
GI50 [4]: 93.8 µM (inactive)
GI50 [5]: 41.8 µM (inactive)
GI50 [6]: 22.6 µM (inactive)
GI50 [7]: 24.9 µM (inactive)
GI50 [8]: 59 µM (inactive)
GI50 [9]: 75.7 µM (inactive)
GI50 [10]: 43.6 µM
GI50 [11]: 33.1 µM (inactive)
GI50 [12]: > 100 µM (inactive)
GI50 [13]: 41 µM (inactive)
GI50 [14]: 35.2 µM (inactive)
GI50 [15]: 0.731 µM (active)
GI50 [16]: 45.2 µM (inactive)
GI50 [17]: 43.8 µM (inactive)
GI50 [18]: 14.9 µM (inactive)
GI50 [19]: 27 µM (inactive)
GI50 [20]: 55.3 µM (inactive)
GI50 [21]: > 100 µM (inactive)
GI50 [22]: 64.4 µM (inactive)
GI50 [23]: 34.2 µM (inactive)
GI50 [24]: 31.6 µM (inactive)
GI50 [25]: 61.9 µM (inactive)
GI50 [26]: 22.9 µM (inactive)
GI50 [27]: 38.3 µM (inactive)
GI50 [28]: 32.4 µM (inactive)
GI50 [29]: 57.9 µM (inactive)
GI50 [30]: 41.8 µM (inactive)
GI50 [31]: 55.8 µM (inactive)
GI50 [32]: 27.7 µM (inactive)
GI50 [33]: 27.4 µM (inactive)
GI50 [34]: 31.6 µM (inactive)
GI50 [35]: 52.5 µM (inactive)
GI50 [36]: 47 µM (inactive)
GI50 [37]: 21.2 µM (inactive)
GI50 [38]: 85.7 µM (inactive)
GI50 [39]: 49.9 µM (inactive)
GI50 [40]: 82.4 µM (inactive)
GI50 [41]: 48.6 µM (inactive)
GI50 [42]: 54.3 µM (inactive)
GI50 [43]: 29.7 µM (inactive)
GI50 [44]: 46.6 µM (inactive)
GI50 [45]: > 100 µM (inactive)
GI50 [46]: 21.8 µM (inactive)
GI50 [47]: 77.1 µM (inactive)
GI50 [48]: 39.2 µM (inactive)
GI50 [49]: 24.5 µM (inactive)
GI50 [50]: 44 µM (inactive)
GI50 [51]: 49.9 µM (inactive)
GI50 [52]: > 100 µM (inactive)
GI50 [53]: 38.4 µM (inactive)

O=S(=O)(O)c1cc(O)c(/N=N\C2S(=O)(=O)OCCOS2(=O)=O)c2ccccc12
GI50 [1]: > 100 µM (inactive)
GI50 [54]: > 100 µM (inactive)
GI50 [55]: > 100 µM (inactive)
GI50 [3]: > 100 µM (inactive)
GI50 [4]: 51.4 µM (inactive)
GI50 [5]: > 100 µM (inactive)
GI50 [6]: 30.6 µM (inactive)
GI50 [7]: 22.2 µM (inactive)
GI50 [8]: 46 µM (inactive)
GI50 [9]: > 100 µM (inactive)
GI50 [10]: > 100 µM
GI50 [11]: 91 µM (inactive)
GI50 [12]: > 100 µM (inactive)
GI50 [13]: 37.9 µM (inactive)
GI50 [14]: > 100 µM (inactive)
GI50 [15]: 28.8 µM (inactive)
GI50 [16]: > 100 µM (inactive)
GI50 [17]: > 100 µM (inactive)
GI50 [18]: > 100 µM (inactive)
GI50 [19]: > 100 µM (inactive)
GI50 [56]: > 100 µM (inactive)
GI50 [20]: 71.8 µM (inactive)
GI50 [21]: 43.6 µM (inactive)
GI50 [22]: > 100 µM (inactive)
GI50 [23]: > 100 µM (inactive)
GI50 [24]: > 100 µM (inactive)
GI50 [25]: > 100 µM (inactive)
GI50 [26]: > 100 µM (inactive)
GI50 [27]: 61.9 µM (inactive)
GI50 [28]: > 100 µM (inactive)
GI50 [29]: > 100 µM (inactive)
GI50 [30]: > 100 µM (inactive)
GI50 [31]: > 100 µM (inactive)
GI50 [32]: 23.4 µM (inactive)
GI50 [57]: 25.6 µM (inactive)
GI50 [33]: > 100 µM (inactive)
GI50 [34]: > 100 µM (inactive)
GI50 [58]: > 100 µM (inactive)
GI50 [35]: > 100 µM (inactive)
GI50 [36]: > 100 µM (inactive)
GI50 [37]: > 100 µM (inactive)
GI50 [38]: > 100 µM (inactive)
GI50 [39]: > 100 µM (inactive)
GI50 [40]: 56.5 µM (inactive)
GI50 [41]: > 100 µM (inactive)
GI50 [42]: > 100 µM (inactive)
GI50 [43]: > 100 µM (inactive)
GI50 [44]: > 100 µM (inactive)
GI50 [45]: > 100 µM (inactive)
GI50 [46]: > 100 µM (inactive)
GI50 [47]: 61.9 µM (inactive)
GI50 [48]: > 100 µM (inactive)
GI50 [49]: > 100 µM (inactive)
GI50 [50]: > 100 µM (inactive)
GI50 [59]: > 100 µM (inactive)
GI50 [51]: > 100 µM (inactive)
GI50 [52]: 54.3 µM (inactive)
GI50 [53]: > 100 µM (inactive)

CN1CCc2c([nH]c3ccccc23)C1
GI50 [1]: > 100 µM (inactive)
GI50 [2]: > 100 µM (inactive)
GI50 [54]: 29.4 µM (inactive)
GI50 [55]: > 100 µM (inactive)
GI50 [3]: > 100 µM (inactive)
GI50 [4]: > 100 µM (inactive)
GI50 [5]: > 100 µM (inactive)
GI50 [6]: > 100 µM (inactive)
GI50 [7]: > 100 µM (inactive)
GI50 [8]: > 100 µM (inactive)
GI50 [9]: > 100 µM (inactive)
GI50 [10]: > 100 µM
GI50 [11]: > 100 µM (inactive)
GI50 [12]: > 100 µM (inactive)
GI50 [13]: > 100 µM (inactive)
GI50 [14]: > 100 µM (inactive)
GI50 [15]: > 100 µM (inactive)
GI50 [16]: > 100 µM (inactive)
GI50 [17]: > 100 µM (inactive)
GI50 [18]: > 100 µM (inactive)
GI50 [19]: > 100 µM (inactive)
GI50 [56]: > 100 µM (inactive)
GI50 [20]: > 100 µM (inactive)
GI50 [21]: > 100 µM (inactive)
GI50 [22]: > 100 µM (inactive)
GI50 [23]: > 100 µM (inactive)
GI50 [24]: > 100 µM (inactive)
GI50 [25]: > 100 µM (inactive)
GI50 [26]: > 100 µM (inactive)
GI50 [27]: > 100 µM (inactive)
GI50 [28]: > 100 µM (inactive)
GI50 [29]: > 100 µM (inactive)
GI50 [30]: > 100 µM (inactive)
GI50 [31]: > 100 µM (inactive)
GI50 [32]: > 100 µM (inactive)
GI50 [57]: 19.7 µM (inactive)
GI50 [34]: > 100 µM (inactive)
GI50 [58]: > 100 µM (inactive)
GI50 [35]: > 100 µM (inactive)
GI50 [36]: > 100 µM (inactive)
GI50 [37]: > 100 µM (inactive)
GI50 [38]: > 100 µM (inactive)
GI50 [39]: > 100 µM (inactive)
GI50 [40]: > 100 µM (inactive)
GI50 [41]: > 100 µM (inactive)
GI50 [42]: > 100 µM (inactive)
GI50 [43]: > 100 µM (inactive)
GI50 [44]: > 100 µM (inactive)
GI50 [45]: > 100 µM (inactive)
GI50 [46]: > 100 µM (inactive)
GI50 [47]: > 100 µM (inactive)
GI50 [48]: > 100 µM (inactive)
GI50 [50]: > 100 µM (inactive)
GI50 [59]: > 100 µM (inactive)
GI50 [51]: > 100 µM (inactive)
GI50 [53]: > 100 µM (inactive)
